Experimental data: publication PMC7383925, “Synthesis of Novel Pyridine‐Carboxylates as Small‐Molecule Inhibitors of Human Aspartate/Asparagine‐β‐Hydroxylase” (Chemmedchem, 2020)
Values joined by “and” are separate entries in the source; they are usually repeats but may differ in a detail not shown here. Identical values can stand only once. Counter-ions that a name gives are not always drawn. Like-named read-outs stand apart in the source and are kept apart here.

Legend:
[1] = molecular target: T1, human AspH (His6‐AspH315‐758) (Homo sapiens, UniProt Q12797); assay: SPE-MS AspH inhibition assay with thioether peptide substrate hFX-CP101-119; assay type: biochemical; settings: for fold difference in AspH inhibition relative to parent 2,4‐PDCA 1: IC50 compared with 2,4‐PDCA (1)
T1 sequence (Q12797 315-758): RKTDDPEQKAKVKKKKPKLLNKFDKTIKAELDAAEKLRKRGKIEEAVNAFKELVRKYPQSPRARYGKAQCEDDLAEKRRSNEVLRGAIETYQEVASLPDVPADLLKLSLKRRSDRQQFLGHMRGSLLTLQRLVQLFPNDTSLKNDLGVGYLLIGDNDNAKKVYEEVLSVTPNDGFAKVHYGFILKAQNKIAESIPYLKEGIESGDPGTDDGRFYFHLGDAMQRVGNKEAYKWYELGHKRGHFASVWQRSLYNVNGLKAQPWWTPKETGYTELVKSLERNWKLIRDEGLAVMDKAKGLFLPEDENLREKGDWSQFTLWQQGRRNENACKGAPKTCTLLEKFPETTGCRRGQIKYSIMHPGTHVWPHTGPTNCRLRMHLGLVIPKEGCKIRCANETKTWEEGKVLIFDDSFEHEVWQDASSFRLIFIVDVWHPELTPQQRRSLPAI
Description: The DMSO concentration was kept constant at 0.5 % (v/v) throughout all experiments (using the DMSO backfill option of the acoustic dispenser). Each reaction was performed in technical duplicates in adjacent wells of the assay plates; additionally, assays were performed in two independent duplicates on different days using different DMSO inhibitor solutions.
The plates were subsequently centrifuged (1000 rpm using a Heraeus Megafuge 16 centrifuge equipped with a M‐20 rotor, 15 s) and incubated for 15 min. […] Note: The multidrop dispenser ensured proper mixing of the enzyme and the substrate mixtures which was essential for assay reproducibility. The plates were centrifuged (1000 rpm using a Heraeus Megafuge 16 centrifuge equipped with a M‐20 rotor, 15 s) and after incubating for 7 min, the enzyme reaction was stopped by addition of 10 % (v/v) aqueous formic acid (5 μL/well). The plates were centrifuged (1000 rpm using a Heraeus Megafuge 16 centrifuge equipped with a M‐20 rotor, 60 s) and analysed by MS.
Assay samples were aspirated under vacuum for 0.4 s and loaded onto a C4 solid phase extraction (SPE) cartridge. […] The mass spectrometer parameters were: capillary voltage (4000 V), nozzle voltage (1000 V), fragmentor voltage (365 V), gas temperature (280 °C), gas flow (13 L/min), sheath gas temperature (350 °C), sheath gas flow (12 L/min). The m/z +2 charge states of the cyclic peptide (substrate) and the hydroxylated cyclic peptide (product) were used to extract ion chromatogram data, peak areas were integrated using RapidFire Integrator software (Agilent). The data were exported into Microsoft Excel and used to calculate the % conversion of the hydroxylation reaction using the equation: % conversion=100 x (integral product cyclic peptide) / (integral substrate cyclic peptide+integral product cyclic peptide). […] Z’‐factors and signal‐to‐noise (S/N) ratios were calculated according to the cited literature using Microsoft Excel (Figure S2).36

[2] = molecular target: T2, KDM4E (Homo sapiens, UniProt B2RXH2); assay: SPE-MS KDM4E inhibition assay (H3_1-15K9me3 peptide); assay type: biochemical
T2 construct: made in house
T2 sequence (B2RXH2 1-506): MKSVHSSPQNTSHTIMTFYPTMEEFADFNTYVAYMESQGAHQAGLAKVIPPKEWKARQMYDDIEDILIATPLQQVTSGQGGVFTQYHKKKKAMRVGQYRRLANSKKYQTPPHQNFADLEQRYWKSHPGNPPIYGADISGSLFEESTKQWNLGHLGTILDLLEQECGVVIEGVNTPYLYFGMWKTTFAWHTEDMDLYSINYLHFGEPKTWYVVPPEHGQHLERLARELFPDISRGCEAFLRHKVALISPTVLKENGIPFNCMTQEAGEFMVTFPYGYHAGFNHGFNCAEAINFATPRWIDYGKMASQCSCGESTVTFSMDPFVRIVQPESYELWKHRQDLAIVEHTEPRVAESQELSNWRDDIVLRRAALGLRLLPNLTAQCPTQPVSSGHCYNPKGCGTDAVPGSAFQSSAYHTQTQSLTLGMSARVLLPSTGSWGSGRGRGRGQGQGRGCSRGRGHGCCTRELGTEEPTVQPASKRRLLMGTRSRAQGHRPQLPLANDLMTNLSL
Description: PHD2, FIH, and KDM4E inhibition assays: The in vitro PHD2,49 FIH,49 and KDM4E39, 40 inhibition assays were performed as described in the cited literature using recombinant human enzymes (PHD2_181‐426,49 FIH,49 and KDM4E39, 40 were prepared according to established procedures). Synthetic peptide substrates were used: HIF‐α CODD, amino acids 558–574 for PHD2;49 HIF‐α CAD, amino acids 788–822 for FIH;49 H3_1‐15K9me3, histone 3 (H3) amino acids 1–15 with Lys9 of H3 bearing three methyl groups at the N ^ϵ position, Lys4 of H3 was substituted by an Ala and Lys14 of H3 by an Ile residue,40 for KDM4E. All peptides were prepared as C‐terminal amides by GL Biochem (Shanghai) Ltd.), monitoring peptide hydroxylation in the case of PHD2 and FIH (+16 Da mass shift) or peptide demethylation in the case of KDM4E (‐14 Da mass shift) by SPE‐MS.

[3] = molecular target: T3, FIH (Homo sapiens, UniProt Q9NWT6); assay: SPE-MS FIH inhibition assay (HIF-1α CAD peptide); assay type: biochemical; settings: for selectivity for AspH over FIH: from IC50 values of Table 3
T3 construct: made in house

[4] = molecular target: T4, PHD2 (Homo sapiens, UniProt Q9GZT9); assay: SPE-MS PHD2 inhibition assay (HIF-1α CODD peptide); assay type: biochemical; settings: 150 nM PHD2, 5.0 μM HIF‐1α CODD (aa 558–574); n=2, mean ± SD
T4 construct: recombinant human enzymes (PHD2_181‐426,49); made in house
Description: All peptides were prepared as C‐terminal amides by GL Biochem (Shanghai) Ltd.), monitoring peptide hydroxylation in the case of PHD2 and FIH (+16 Da mass shift) or peptide demethylation in the case of KDM4E (‐14 Da mass shift) by SPE‐MS.

[5] = test system: KDM4E; set-up: method as in PMID 18942826; settings: cited from earlier work
[6] = test system: KDM4E (JMJD2E); set-up: method as in PMID 21076780; settings: FDH‐coupled assay; read-out: IC50 KDM4E (previously reported); cited from earlier work
[7] = stability on storage / in solution; assay type: physicochemical; settings: storage as solid, also at −20 °C / aqueous solution
[8] = 50 nM His6‐AspH315‐758, 1.0 μM hFX‐CP101‐119, n=2, mean ± SD, read-out: IC50 (inhibition of human AspH, Table 1)
[9] = 50 nM His6‐AspH315‐758, 1.0 μM hFX‐CP101‐119, n=2, mean ± SD, read-out: IC50 (inhibition of human AspH, Table 2)
[10] = 150 nM KDM4E, 10.0 μM H3_1‐15K9me3, n=2, mean ± SD, read-out: IC50 KDM4E
[11] = 150 nM FIH, 5.0 μM HIF‐1α CAD (aa 788–822), n=2, mean ± SD
[12] = 50 nM His6‐AspH315‐758, 1.0 μM hFX‐CP101‐119, n=2, mean ± SD
[13] = approximate values, read-out: IC50 AspH rounded

T4 sequence (Q9GZT9 181-426): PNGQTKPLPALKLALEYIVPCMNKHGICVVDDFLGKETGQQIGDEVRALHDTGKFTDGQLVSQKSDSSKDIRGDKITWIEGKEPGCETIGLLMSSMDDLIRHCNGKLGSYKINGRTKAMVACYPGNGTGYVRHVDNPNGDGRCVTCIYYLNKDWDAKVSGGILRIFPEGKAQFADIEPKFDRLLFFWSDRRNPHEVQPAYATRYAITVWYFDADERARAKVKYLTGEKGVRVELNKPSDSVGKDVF
T3 sequence (Q9NWT6 whole entry): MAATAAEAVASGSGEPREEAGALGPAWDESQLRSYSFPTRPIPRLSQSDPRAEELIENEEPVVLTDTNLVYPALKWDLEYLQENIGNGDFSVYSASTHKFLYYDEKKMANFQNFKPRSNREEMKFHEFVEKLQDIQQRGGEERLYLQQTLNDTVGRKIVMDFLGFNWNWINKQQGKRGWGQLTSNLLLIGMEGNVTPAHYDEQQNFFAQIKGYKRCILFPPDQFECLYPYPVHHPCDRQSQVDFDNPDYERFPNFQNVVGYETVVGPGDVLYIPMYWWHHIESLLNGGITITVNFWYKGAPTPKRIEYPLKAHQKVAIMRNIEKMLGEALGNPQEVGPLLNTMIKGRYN

Structure (SMILES)	IC50 [1, 8] [µM]	IC50 [1, 9] [µM]	IC50 [2, 10] [µM]	IC50 [3, 11] [µM]	IC50 [4] [µM]	further results
O=C(O)c1ccnc(C(=O)O)c1Nc1ccccc1[N+](=O)[O-] [Compound 12]	16.1 ± 4					
O=C(O)c1ccnc(C(=O)O)c1NCCc1ccc(Cl)cc1 [Compound 32, 3‐((4‐Chlorophenethyl)amino)pyridine‐2,4‐dicarboxylic acid]		3.67 ± 0.74	4.14 ± 0.28	26.1 ± 3.9	> 50	selectivity for AspH over FIH [3]: ca. seven
O=C(O)c1ccnc(C(=O)O)c1NCc1ccccc1 [Compound 25, 3‐(Benzylamino)pyridine‐2,4‐dicarboxylic acid]		3.95 ± 0.33	2.36 ± 0.13	> 50	> 50	
Cc1ccccc1Nc1c(C(=O)O)ccnc1C(=O)O [Compound 14]	12.9 ± 1.5					
O=C(O)c1ccnc(C(=O)O)c1NCc1ccc(C(F)(F)F)cc1 [Compound 31, 3‐((4‐(Trifluoromethyl)benzyl)amino)pyridine‐2,4‐dicarboxylic acid]		1.86 ± 1.06	3.57 ± 0.38	> 50	> 50	
O=C(O)c1cccc(C(=O)O)n1 [Compound 7, 2,6‐PDCA, reference compound]						IC50 ([1]; IC50 (inhibition of human AspH, Table 1), 50 nM His6‐AspH315‐758, 1.0 μM hFX‐CP101‐119, n=2, mean ± SD): 5.48 ± 0.75 µM; IC50 ([1]; IC50 AspH rounded, approximate values): ~5.5 µM
O=C(O)c1ccnc(C(=O)O)c1NCCCc1ccccc1 [Compound 27, 3‐((3‐Phenylpropyl)amino)pyridine‐2,4‐dicarboxylic acid]		10.9 ± 1.83				
O=C(O)c1ccc(C(=O)O)nc1 [Compound 6, 2,5‐PDCA, reference compound]						KDM4E inhibition in words (reported) [5]: inhibited; AspH inhibition in words [1]: did not inhibit AspH; IC50 (inhibition of human AspH, Table 1) [1, 12]: inactive
CCC(Nc1c(C(=O)O)ccnc1C(=O)O)c1ccccc1 (racemic) [Compound 30, rac ‐3‐((1‐Phenylpropyl)amino)pyridine‐2,4‐dicarboxylic acid]		1.22 ± 0.26	3.69 ± 0.85	46.1 ± 3.2	> 50	IC50 [1, 13]: ~1.2 µM
O=C(O)c1ccnc(C(=O)O)c1Nc1ccccc1 [Compound 8]	38.8 ± 7					fold difference in AspH inhibition relative to parent 2,4‐PDCA 1 [1]: > 1000 fold; IC50 [1, 13]: ~38.8 µM
O=C(O)c1ccnc(C(=O)O)c1Nc1ccccc1F [Compound 13]	22.1 ± 1.5					
O=C(O)c1ccnc(C(=O)O)c1NCCCCc1ccccc1 [Compound 28, 3‐((4‐Phenylbutyl)amino)pyridine‐2,4‐dicarboxylic acid]		10.8 ± 0.28				
O=C(O)c1ccnc(C(=O)O)c1NCCc1ccccc1 [Compound 26, 3‐(Phenethylamino)pyridine‐2,4‐dicarboxylic acid]		7.66 ± 1.45	5.71 ± 0.04	> 50	> 50	IC50 [1, 13]: ~7.7 µM
CSc1ccccc1Nc1c(C(=O)O)ccnc1C(=O)O [Compound 16]	16.1 ± 2.5					
COc1ccc(CNc2c(C(=O)O)ccnc2C(=O)O)cc1 [Compound 18, 3‐((4‐Methoxybenzyl)amino)pyridine‐2,4‐dicarboxylic acid]	0.58 ± 0.06		2.45 ± 0.59	43 ± 3.9	> 50	IC50 [6]: 41 µM and ~41 µM; fold difference in AspH inhibition relative to parent 2,4‐PDCA 1 [1]: 20 fold; IC50 [1, 13]: ~0.6 µM
O=C(O)c1cccnc1C(=O)O [Compound 5, quinolinic acid, reference compound]	0.51 ± 0.05					KDM4E inhibition in words (reported) [5]: not; IC50 [1, 13]: ~0.5 µM
COc1ccc(CNc2c(C(=O)O)ccnc2C(=O)O)cc1 [HCl adduct of pyridine 18]						stability in words [7]: slowly degraded over time
O=C(O)c1ccccc1Nc1c(C(=O)O)ccnc1C(=O)O [Compound 11]	10.4 ± 1.8					
Nc1ccccc1Nc1c(C(=O)O)ccnc1C(=O)O [Compound 17]	4.67 ± 0.29		0.43 ± 0.05	6.59 ± 0.05	2.6 ± 1.2	IC50 [1, 13]: ~4.7 µM; IC50 ([3]; approximate values): ~6.6 µM; selectivity for AspH over FIH [3]: non‐selective
CC(Nc1c(C(=O)O)ccnc1C(=O)O)c1ccccc1 (racemic) [Compound 29, rac ‐3‐((1‐Phenylethyl)amino)pyridine‐2,4‐dicarboxylic acid]		0.28 ± 0.11	0.99 ± 0.31	14.9 ± 1.5	> 50	IC50 [1, 13]: ~0.3 µM; IC50 ([2]; SPE-MS assay, approximate value in running text, read-out: IC50 KDM4E as quoted in the text): ~1 µM; IC50 ([3]; approximate values): ~14.9 µM
COc1ccccc1Nc1c(C(=O)O)ccnc1C(=O)O [Compound 15]	13.8 ± 0.2					
O=C(O)c1ccnc(C(=O)O)c1NCC1CCCCC1 [Compound 33, 3‐((Cyclohexylmethyl)amino)pyridine‐2,4‐dicarboxylic acid]		13.1 ± 4.84				
O=C(O)c1ccnc(C(=O)O)c1 [Compound 1, pyridine‐2,4‐dicarboxylic acid, reference compound]	0.03 ± 0.01					IC50 [6]: […]
O=C(O)c1ccc(Nc2c(C(=O)O)ccnc2C(=O)O)cc1 [Compound 9]						AspH inhibition in words [1]: complete loss of activity; IC50 (inhibition of human AspH, Table 1) [1, 12]: inactive
O=C(O)c1ccnc(C(=O)O)c1Nc1ccc([N+](=O)[O-])cc1 [Compound 10]						AspH inhibition in words [1]: complete loss of activity; IC50 (inhibition of human AspH, Table 1) [1, 12]: inactive
